According to paper PMC8119466, “A screen of FDA-approved drugs identifies inhibitors of protein tyrosine phosphatase 4A3 (PTP4A3 or PRL-3)” (Scientific Reports, 2021):
Where a name gives a salt, the structure may show the parent alone.

Legend:
Format in all cases: biochemical
Settings in all cases: FDA-approved drug screen; activity compared to DMSO
recombinant PRL-3 = target: T1, recombinant PRL-3 (Homo sapiens, UniProt O75365); experiment: In vitro phosphatase assay (DiFMUP hydrolysis), PRL-3; further: test concentration or dose not given here
T1 construct: 6xHis (N, cleaved yes); made in house; host or cells: E. coli One Shot BL21 Star

recombinant PRL-2 = target: T2, recombinant PRL-2 (Homo sapiens, UniProt Q12974); experiment: In vitro phosphatase assay (DiFMUP hydrolysis), PRL-2;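 further: PRL-2 activity read as DiFMUP hydrolysis after 20 min at room temperature with drug, enzyme first pre-reduced at 4 °C for 20 min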
T2 construct: 6xHis (N, cleaved yes); made in house; host or cells: E. coli One Shot BL21 Star
T2 sequence (Q12974 1-167): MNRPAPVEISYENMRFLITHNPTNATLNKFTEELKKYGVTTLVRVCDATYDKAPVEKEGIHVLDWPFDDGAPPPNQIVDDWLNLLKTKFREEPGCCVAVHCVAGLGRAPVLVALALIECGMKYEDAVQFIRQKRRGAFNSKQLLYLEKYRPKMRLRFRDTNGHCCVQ

recombinant PRL-1 = target: T3, recombinant PRL-1 (Homo sapiens, UniProt Q93096); experiment: In vitro phosphatase assay (DiFMUP hydrolysis), PRL-1; further: test concentration or dose not given here
T3 construct: 6xHis (N, cleaved yes); made in house; host or cells: E. coli One Shot BL21 Star
T3 sequence (Q93096 1-173): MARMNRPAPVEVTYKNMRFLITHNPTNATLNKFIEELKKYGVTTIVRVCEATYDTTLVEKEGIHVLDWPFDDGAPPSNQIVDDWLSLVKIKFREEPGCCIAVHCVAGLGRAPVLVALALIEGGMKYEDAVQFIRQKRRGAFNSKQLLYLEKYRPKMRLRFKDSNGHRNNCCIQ

T1 sequence (O75365 whole entry): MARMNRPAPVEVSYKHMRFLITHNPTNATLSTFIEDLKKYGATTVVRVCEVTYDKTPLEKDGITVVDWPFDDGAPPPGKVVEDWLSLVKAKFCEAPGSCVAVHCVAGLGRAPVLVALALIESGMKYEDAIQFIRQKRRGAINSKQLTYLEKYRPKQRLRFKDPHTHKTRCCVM

Row | Compound | % Phosphatase Activity (compared to DMSO) PRL-3 (recombinant PRL-3) | % Phosphatase Activity (compared to DMSO) PRL-2 (recombinant PRL-2) | % Phosphatase Activity (compared to DMSO) PRL-1 (recombinant PRL-1)
1 | Cc1ccc(NC(=O)C2(c3ccc4c(c3)OC(F)(F)O4)CC2)nc1-c1cccc(C(=O)O)c1 [VX-809 (Lumacaftor)] | 90% | 96% | 112%
2 | CC(C)[C@H](N)C(=O)OCCOCn1cnc2c(=O)nc(N)[nH]c21.Cl [Valaciclovir HCl] | 98% | 102% | 97%
3 | CC(C)[C@H](N)C(=O)OCC(CO)OCn1cnc2c(=O)nc(N)[nH]c21 (stereo partly drawn) [Valganciclovir HCl] | 75% | 97% | 103%
4 | C=C[C@]1(C)C[C@@H](OC(=O)CSC(C)(C)CNC(=O)[C@H](N)C(C)C)[C@]2(C)[C@H](C)CC[C@]3(CCC(=O)[C@H]32)[C@@H](C)[C@@H]1O.Cl [Valnemulin HCl] | 80% | 95% | 86%
5 | CN[C@H](CC(C)C)C(=O)N[C@H]1C(=O)N[C@@H](CC(N)=O)C(=O)N[C@H]2C(=O)N[C@H]3C(=O)N[C@H](C(=O)N[C@H](C(=O)O)c4cc(O)cc(O)c4-c4cc3ccc4O)[C@H](O)c3ccc(c(Cl)c3)Oc3cc2cc(c3O[C@@H]2O[C@H](CO)[C@@H](O)[C@H](O)[C@H]2O[C@H]2C[C@](C)(N)[C@H](O)[C@H](C)O2)Oc2ccc(cc2Cl)[C@H]1O [Vancomycin HCl] | 99% | 109% | 99%
6 | CCCc1nc(C)c2c(=O)[nH]c(-c3cc(S(=O)(=O)N4CCN(CC)CC4)ccc3OCC)nn12.Cl.O.O.O [Vardenafil HCl Trihydrate] | 84% | 98% | 98%
7 | C[C@@H]1COC(Nc2ccc3ncnc(Nc4ccc(OCc5nccs5)c(Cl)c4)c3c2)=N1 [Varlitinib] | 132% | 142% | 126%
8 | Cl.Cl.Clc1ccc(Nc2nnc(Cc3ccncc3)c3ccccc23)cc1 [Vatalanib (PTK787) 2HCl] | 72% | 96% | 109%
9 | CC(=O)O[C@H]1C[C@@H]2CC[C@@H]3[C@H](CC[C@@]4(C)[C@H]3C[C@H]([N+]3(C)CCCCC3)[C@@H]4OC(C)=O)[C@@]2(C)C[C@@H]1N1CCCCC1 [Vecuronium Bromide] | 87% | 100% | 103%
10 | COc1ccc(C(CN(C)C)C2(O)CCCCC2)cc1 (stereo not drawn) [Venlafaxine] | 84% | 100% | 97%
11 | Nc1ncnc2c1ncn2[C@@H]1O[C@H](CO)[C@@H](O)[C@@H]1O [Vidarabine] | 121% | 116% | 106%
12 | N#C[C@@H]1CCCN1C(=O)CNC12CC3CC(CC(O)(C3)C1)C2 [Vildagliptin (LAF-237)] | 94% | 136% | 99%
13 | CC[C@]1(O)C[C@@H]2CN(CCc3c([nH]c4ccccc34)[C@@](C(=O)OC)(c3cc4c(cc3OC)N(C)[C@H]3[C@@](O)(C(=O)OC)[C@H](OC(C)=O)[C@]5(CC)C=CCN6CC[C@]43[C@@H]65)C2)C1 [Vinblastine sulfate] | 91% | 95% | 92%
14 | CCOC(=O)C1=C[C@]2(CC)CCCN3CCc4c(n1c1ccccc41)[C@@H]32 [Vinpocetine] | 79% | 114% | 95%
15 | CS(=O)(=O)c1ccc(C(=O)Nc2ccc(Cl)c(-c3ccccn3)c2)c(Cl)c1 [Vismodegib (GDC-0449)] | 79% | 99% | 94%
16 | O=C1O[C@H]([C@@H](O)CO)C(O)=C1O [Vitamin C] | 75% | 105% | 96%
17 | C=C1CC[C@H](O)C/C1=C/C=C1\CCC[C@]2(C)[C@@H]([C@H](C)CCCC(C)C)CC[C@@H]12 [Vitamin D3] | 63% | 95% | 85%
18 | OCC(CO)N[C@H]1C[C@](O)(CO)[C@@H](O)[C@H](O)[C@H]1O [Voglibose] | 75% | 104% | 98%

Other lines, results leading:

Row | % Phosphatase Activity (compared to DMSO) PRL-3 (recombinant PRL-3) | % Phosphatase Activity (compared to DMSO) PRL-2 (recombinant PRL-2) | % Phosphatase Activity (compared to DMSO) PRL-1 (recombinant PRL-1) | Compound
19 | 77% | 79% | 96% | C[C@H](CCC(=O)O)[C@H]1CC[C@H]2[C@@H]3[C@@H](O)C[C@@H]4C[C@H](O)CC[C@]4(C)[C@H]3CC[C@]12C [Ursodiol]
20 | 76% | 85% | 91% | CC(C)(C)C#Cc1cc(N(C(=O)[C@H]2CC[C@H](C)CC2)[C@H]2CC[C@H](O)CC2)c(C(=O)O)s1 [VX-222 (VCH-222, Lomibuvir)]
21 | 82% | 87% | 89% | Cc1cc(Nc2cc(N3CCN(C)CC3)nc(Sc3ccc(NC(=O)C4CC4)cc3)n2)n[nH]1 [VX-680 (Tozasertib, MK-0457)]
22 | 80% | 103% | 97% | Cc1onc(-c2ccccc2)c1-c1ccc(S(N)(=O)=O)cc1 [Valdecoxib]
23 | 101% | 115% | 86% | CCCCC(=O)N(Cc1ccc(-c2ccccc2-c2nnn[nH]2)cc1)[C@H](C(=O)O)C(C)C [Valsartan]
24 | 77% | 98% | 96% | COc1cc2/c(=N/c3ccc(Br)cc3F)nc[nH]c2cc1OCC1CCN(C)CC1 [Vandetanib (ZD6474)]
25 | 83% | 99% | 108% | C[C@]1(c2nc3c(C(N)=O)cccc3[nH]2)CCCN1 [Veliparib (ABT-888)]
26 | 80% | 89% | 89% | CCCS(=O)(=O)Nc1ccc(F)c(C(=O)c2c[nH]c3ncc(-c4ccc(Cl)cc4)cc23)c1F [Vemurafenib (PLX4032, RG7204)]
27 | 91% | 72% | 97% | COc1cccc(-c2ccc(NC(=O)C3=C(C(=O)O)CCC3)c(F)c2)c1 [Vidofludimus]
28 | 61% | 100% | 85% | CC[C@]1(O)C[C@H]2CN(CCc3c([nH]c4ccccc34)[C@@](C(=O)OC)(c3cc4c(cc3OC)N(C=O)[C@H]3[C@@](O)(C(=O)OC)[C@H](OC(C)=O)[C@]5(CC)C=CCN6CC[C@]43[C@@H]65)C2)C1 [Vincristine]
29 | 83% | 98% | 89% | CCC1=C[C@@H]2CN(C1)Cc1c([nH]c3ccccc13)[C@@](C(=O)OC)(c1cc3c(cc1OC)N(C)[C@H]1[C@@](O)(C(=O)OC)[C@H](OC(C)=O)[C@]4(CC)C=CCN5CC[C@]31[C@@H]54)C2 [Vinorelbine Tartrate]
30 | 84% | 99% | 95% | C=C1CC[C@H](O)C/C1=C/C=C1\CCC[C@]2(C)[C@@H]([C@H](C)/C=C/[C@H](C)C(C)C)CC[C@@H]12 [Vitamin D2]
